Experiments:
[1] = Stability of compounds in mouse hepatocytes; assay type: in vitro ADME; details: cryopreserved mouse hepatocytes in suspension, 37° C., 0-240 min
Experimental: (§1) Stability in hepatocytes for select compounds disclosed in the application was evaluated in two species (mouse and human) according to the following procedure. Compounds and positive control samples were dissolved in 100% DMSO at 5 mM. Cryopreserved hepatocytes were thawed and resuspended in Hepatocyte Basal Medium (HBM-Lonza CC-3199) supplemented with CC-4182 (complete hepatocyte culture medium). Test compounds were diluted into cell suspension (1 million cells/ml) from the stock solutions to have a test compound concentration of 5 μM (0.1% DMSO). Incubation was performed in 24-well plates, at 37° C. in a DUBNOFF water bath, under low shaking. Each compound was tested at 6 time points, in duplicates (0, 15, 30, 60, 120, and 240 min). At each time point, an aliquot of 120 μl was taken and transferred to a 96-well deep plate. The reaction was stopped with the addition of one volume of 100% acetonitrile plus 0.1% formic acid and the appropriate internal standard. Samples then were centrifuged at 1100×g for 30 min at +4° C. and supernatants were transferred to a new 96-deepwell plate. Samples were evaporated under N2 and reconstituted in H2O/ACN 0.1% formic Acid (98:2). Analysis was performed without a calibration curve (Acquity UPLC-Waters; Sciex API4000). Time 0 was obtained adding acetonitrile before addition of the test compound. Stability was determined based on analysis of disappearance of the compounds as a function of incubation time. Quantification of test compounds was measured as a peak area relative to an internal standard. The elimination constant, k, is calculated by plotting mean disappearance values on a semi-logarithmic scale and fitting with a best fit linear regression. The half-life (t1/2) expressed in hours was derived using Equation 1:
(§2) t1/2=ln 2/(−k). Equation 1: […]

[2] = Stability of compounds in human hepatocytes; assay type: in vitro ADME; details: cryopreserved human hepatocytes in suspension, 37° C., 0-240 min
Experimental: as §1, §2

PANK2−/− IMR32 cells = test: Coenzyme A assay in PANK2 silenced cells (LC-MS quantification of free CoA); assay type: cell-based, human; details: Homo sapiens, IMR-32; compound concentration 50 uM; fold increase in CoA levels relative to controls; treated twice, 24 h + 24 h
[3] = Diastereoisomer A (upfield shift in 31P NMR), read-out: t1/2 (h) Mouse Hepatocytes Diastereoisomer A (converted)
[4] = Diastereoisomer B, read-out: t1/2 (h) Mouse Hepatocytes Diastereoisomer B
[5] = Diastereoisomer A (upfield shift in 31P NMR), read-out: t1/2 (h) Human Hepatocytes Diastereoisomer A (converted)
[6] = Diastereoisomer B, read-out: t1/2 (h) Human Hepatocytes Diastereoisomer B (converted)

| half-life at 5 μM [1, 3] | half-life at 5 μM [1, 4] | half-life at 5 μM [2, 5] | half-life at 5 μM [2, 6] | Structure (SMILES) | fold induction at 50 µM (PANK2−/− IMR32 cells) |
| --- | --- | --- | --- | --- | --- |
| < 0.25 h | < 0.25 h | 0.25 h | 0.21 h | CC(=O)SCCNC(=O)CCNC(=O)[C@@H]1OP(=O)(OCOC(=O)c2cc(C)nn2C)OCC1(C)C (stereo partly drawn) [R1007, (((4R)-4-((3-((2-(acetylthio)ethyl)amino)-3-oxopropyl)carbamoyl)-5,5-dimethyl-2-oxido-1,3,2-dioxaphosphinan-2-yl)oxy)methyl 1,3-dimethyl-1H-pyrazole-5-carboxylate] | 109 |
| 0.31 h | < 0.25 h | 0.42 h | 0.35 h | CC(=O)SCCNC(=O)CCNC(=O)[C@@H]1OP(=O)(OCOC(=O)c2scnc2C)OCC1(C)C (stereo partly drawn) [R1006, (((4R)-4-((3-((2-(acetylthio)ethyl)amino)-3-oxopropyl)carbamoyl)-5,5-dimethyl-2-oxido-1,3,2-dioxaphosphinan-2-yl)oxy)methyl 4-methylthiazole-5-carboxylate] | 117 |

— patent US20190337971A1, “PANTETHEINE DERIVATIVES FOR THE TREATMENT OF NEUROLOGIC DISORDERS” (Retrophin, Inc., priority 2016, published 2019)
